Data from patent US20190161480A1, “Chemical Compounds” (GLAXOSMITHKLINE INTELLECTUAL PROPERTY DEVELOPMENT LIMITED, priority 2016, published 2019).
Read-outs that look alike come from different tables or passages of the source.

Experiments:
Class I PI3-kinases = details: read-out: IC50 against each of the Class I PI3-kinases, cited from earlier work
CK2 protein kinase = details: literature; cited from earlier work
PI3Kβ = PI3Kβ (Homo sapiens, UniProt P42338); test: PI3K HTRF assay, PI3K-beta; type: biochemical; details: read-out: pIC50 PI3Kβ (converted); note: 400 µM ATP
Experimental: (§1) The binding of compounds to PI3K-alpha/beta/delta/gamma is determined by homogeneous time resolved fluorescence (HTRF) assays as follows;
(§2) Briefly, solid compound is dissolved in 100% DMSO at a concentration of 2 mM. Dilutions are prepared in 100% DMSO using a 1 in 4 serial step dilution. The dilutions are transferred to black low volume Greiner assay plates ensuring that the DMSO concentration is constant across the plate at 1% (0.1 μL/well).
(§3) PI3K Reaction Buffer (contains 50 mM HEPES pH 7.0 (NaOH), 150 mM NaCl, 10 mM MgCl2, 2.3 mM sodium cholate, […] CHAPS made up in milliQ water). Fresh DTT is added at a final concentration of 1 mM on the day of use.
(§4) Enzyme solutions: 1× PI3K Assay Buffer containing: • 550 pM PI3K-Alpha enzyme (275 pM final assay concentration) • 800 pM PI3K-Beta enzyme (400 pM final assay concentration) • 3 nM PI3K-Delta enzyme (1.5 nM final assay concentration) • 10 nM PI3K-Gamma enzyme (5 nM final assay concentration)
(§5) These concentrations are optimal to achieve a signal:background of between 1.5-4.5. The enzyme solution is added to columns 1-24 (3 μL/well) and plates are incubated for 15 minutes at room temperature.
(§6) Substrate solution: 1× PI3K Assay Buffer containing: • PI3K-Alpha: 500 μM ATP, 20 μM PIP2 and 120 nM biotin-PIP3.
(§7) This is added to all wells and plates are incubated for 1 hour at room temperature.
(§8) Detection solution: PI3K Detection Buffer (contains 50 mM HEPES pH 7.0 (HCl), 150 mM NaCl, 2.3 mM sodium cholate, 10 μM CHAPS, 240 mM potassium fluoride) containing 2 mM DTT (2× final assay concentration), 90 nM GRP-1 PH domain, 300 nM Streptavidin-APC and 24 nM Europium-anti-GST (6× final assay concentrations).
(§9) This is mixed left at room temperature (protected from light).
(§10) STOP solution: PI3K STOP Buffer (contains 50 mM HEPES pH 7.0 (HCl), 150 mM NaCl, 2.3 mM sodium cholate, 10 μM CHAPS, 150 mM EDTA).
(§11) Detection solution is diluted 1:1 with STOP solution and added to all wells (3 μL/well). Plates are covered and incubated on the bench for 45-60 minutes.
(§12) Plates are read on a PerkinElmer Envision, measuring TR-FRET between the complex formed between the GST-tagged PH domain and biotinylated PIP3 which both recruit fluorophores (Europium-labelled anti-GST & Strep-APC respectively). In the […] of an inhibitor, this complex is disrupted by the competitive action of non-biotinylated PIP3 (formed in the assay by the phosphorylation of PIP2 by the kinase & ATP). From this, the ratio of acceptor/donor was calculated (λex=317 nm, Δem donor=615 nm, Δem acceptor=665 nm) and used for data analysis.

PI3Kδ [1] = target: T1, PI3Kδ (Homo sapiens, UniProt O00329); test: PI3K HTRF assay, PI3K-delta; type: biochemical; details: read-out: pIC50 PI3Kδ (converted); note: 80 µM ATP
Experimental: as §1, §2, §3, §4, §5, §6, §7, §8, §9, §10, §11, §12

PI3Kα = PI3Kα (Homo sapiens, UniProt P42336); test: PI3K HTRF assay, PI3K-alpha; type: biochemical; details: read-out: pIC50 PI3Kα (converted); note: 250 µM ATP
Experimental: as §1, §2, §3, §4, §5, §6, §7, §8, §9, §10, §11, §12

PI3Kγ = PI3Kγ (Homo sapiens, UniProt P48736); test: PI3K HTRF assay, PI3K-gamma; type: biochemical; details: read-out: pIC50 PI3Kγ (converted); note: 15 µM ATP
Experimental: as §1, §2, §3, §4, §5, §6, §7, §8, §9, §10, §11, §12

[2] = tested on: amphetamine-induced psychosis; details: Law et al. 2012; cited from earlier work
PI3Kδ [3] = target: T1, PI3Kδ; test: PI3Kδ jump dilution experiment; type: biochemical; details: 15 min incubation, 100-fold dilution, read for 30 minutes
Experimental: Irreversibility of the PI3Kδ-Inhibitor complex, and reversibility of the non-covalent controls, was determined by jump-dilution assay as follows:
PI3Kδ enzyme was made up to a 100× assay concentration (final assay concentration=6 nM) in buffer solution (contains 50 mM HEPES pH 7.0 (NaOH), 150 mM NaCl, 10 mM MgCl2, 2.3 mM sodium cholate, 10 μM CHAPS made up in milliQ water).
100× enzyme solution was added to compound wells (20 μL/well), and incubated for 15 mins, after which point the assay was diluted 100-fold with commercially available ADP QUEST substrate solution, available from DiscoverX (calatog number: 90-0071), (3200 μL DiscoverX Reagent A, 6400 μL DiscoverX Reagent B, 1 mM ATP and 40 μM PIP2). Production of fluorescence signal was then measured immediately using a Tecan Safire II plate reader at 30 second intervals for 30 minutes (λex=544 nm, λem=590 nm).

PI3Kδ [4] = target: T1, PI3Kδ; test: Protein mass spectrometry: covalent adduct assessment and competition experiment; type: binding; details: 10:1 inhibitor:protein, incubated overnight
Experimental: Compounds were incubated with 1 μM protein in a 10:1 inhibitor:protein ratio in buffer containing 50 mM HEPES, pH 7.0 (NaOH), 150 mM NaCl, 10 mM MgCl2, 2.3 mM cholate, 10 μM CHAPS. After the desired time, the assays were quenched with a 10% formic acid solution, and analysed by LCMS using an Agilent 6224 TOF LC/MS equipped with Agilent 1200 Series autosampler. Analytes were separated on a Polymer Labs (Agilent) PLRP-S column (50 mm×1 mm internal diameter, 5 μm particle size). LC conditions were 0.5 mL·min^−1 flow rate, 70° C., 10 μL injection volume. Gradient elution with (A) water containing 0.2% (v/v) formic acid and (B) acetonitrile containing 0.2% (v/v) formic acid. Gradient conditions were initially 10% B, increasing to 30% after 0.5 min, and then linearly to 80% B over 4.5 min, prior to a 1.2 min flush with 100% B and then a 1.9 minute equilibration with 10% B prior to the next injection. Mass spectra were then deconvoluted using Agilent MassHunter Qualitative Analysis version B.06.00 over the mass range 70-170 kDa to obtain the intact protein mass.
A potent reversible ATP competitive inhibitor was incubated with 1 μM protein in a 10:1 inhibitor:protein ratio in buffer containing 50 mM HEPES, pH 7.0 (NaOH), 150 mM NaCl, 10 mM MgCl2, 2.3 mM cholate, 10 μM CHAPS at room temperature. […] The assay was quenched at 5 min and analysed using the procedure detailed above.

T1 sequence (O00329 whole entry): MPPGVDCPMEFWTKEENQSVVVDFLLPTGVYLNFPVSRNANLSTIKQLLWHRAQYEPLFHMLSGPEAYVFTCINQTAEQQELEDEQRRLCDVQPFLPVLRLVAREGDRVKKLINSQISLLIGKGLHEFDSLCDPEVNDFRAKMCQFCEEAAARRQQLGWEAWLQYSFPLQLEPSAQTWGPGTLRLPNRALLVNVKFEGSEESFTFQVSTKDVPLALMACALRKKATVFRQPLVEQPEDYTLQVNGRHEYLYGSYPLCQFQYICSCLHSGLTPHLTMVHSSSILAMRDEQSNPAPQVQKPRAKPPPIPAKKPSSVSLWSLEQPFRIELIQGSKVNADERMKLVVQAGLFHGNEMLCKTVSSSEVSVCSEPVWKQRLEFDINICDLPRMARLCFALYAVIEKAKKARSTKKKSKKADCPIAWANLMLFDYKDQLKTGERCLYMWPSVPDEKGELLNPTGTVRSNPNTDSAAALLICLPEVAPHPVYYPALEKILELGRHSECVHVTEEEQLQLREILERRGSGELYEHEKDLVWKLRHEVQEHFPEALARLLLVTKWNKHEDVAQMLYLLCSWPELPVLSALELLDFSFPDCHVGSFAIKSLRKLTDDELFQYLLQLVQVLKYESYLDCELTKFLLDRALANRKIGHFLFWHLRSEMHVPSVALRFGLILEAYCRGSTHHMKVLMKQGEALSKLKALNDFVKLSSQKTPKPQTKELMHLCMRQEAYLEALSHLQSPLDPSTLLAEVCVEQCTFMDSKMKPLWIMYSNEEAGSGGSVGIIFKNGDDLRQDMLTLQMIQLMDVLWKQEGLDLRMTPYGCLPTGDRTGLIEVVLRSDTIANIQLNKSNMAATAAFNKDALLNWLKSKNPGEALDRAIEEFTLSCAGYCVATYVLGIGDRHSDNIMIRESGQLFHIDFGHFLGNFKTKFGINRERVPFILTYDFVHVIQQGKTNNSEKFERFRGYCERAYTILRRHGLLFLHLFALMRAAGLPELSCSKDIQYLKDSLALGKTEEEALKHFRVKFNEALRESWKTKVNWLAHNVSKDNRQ
T1 sequence (P27986 whole entry partner): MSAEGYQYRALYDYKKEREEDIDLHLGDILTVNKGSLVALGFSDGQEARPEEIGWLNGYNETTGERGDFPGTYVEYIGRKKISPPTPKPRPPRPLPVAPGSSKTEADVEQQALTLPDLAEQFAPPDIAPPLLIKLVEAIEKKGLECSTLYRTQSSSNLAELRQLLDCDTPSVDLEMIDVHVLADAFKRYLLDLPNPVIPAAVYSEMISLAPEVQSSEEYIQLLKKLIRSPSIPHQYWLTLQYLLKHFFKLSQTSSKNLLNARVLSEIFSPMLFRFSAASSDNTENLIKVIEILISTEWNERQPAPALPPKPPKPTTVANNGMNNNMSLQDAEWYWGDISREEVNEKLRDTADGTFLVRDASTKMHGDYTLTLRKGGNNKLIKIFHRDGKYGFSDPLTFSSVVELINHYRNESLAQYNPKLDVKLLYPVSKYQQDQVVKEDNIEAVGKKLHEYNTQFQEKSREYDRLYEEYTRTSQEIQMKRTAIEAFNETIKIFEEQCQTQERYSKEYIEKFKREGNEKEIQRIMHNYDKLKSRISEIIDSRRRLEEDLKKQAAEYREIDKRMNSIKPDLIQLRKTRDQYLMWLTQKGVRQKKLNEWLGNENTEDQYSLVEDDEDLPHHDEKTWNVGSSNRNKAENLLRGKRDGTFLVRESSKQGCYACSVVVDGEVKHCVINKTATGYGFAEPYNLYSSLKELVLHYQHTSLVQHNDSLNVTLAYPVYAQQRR
Sequence of PI3Kβ (P42338 whole entry, species assumed): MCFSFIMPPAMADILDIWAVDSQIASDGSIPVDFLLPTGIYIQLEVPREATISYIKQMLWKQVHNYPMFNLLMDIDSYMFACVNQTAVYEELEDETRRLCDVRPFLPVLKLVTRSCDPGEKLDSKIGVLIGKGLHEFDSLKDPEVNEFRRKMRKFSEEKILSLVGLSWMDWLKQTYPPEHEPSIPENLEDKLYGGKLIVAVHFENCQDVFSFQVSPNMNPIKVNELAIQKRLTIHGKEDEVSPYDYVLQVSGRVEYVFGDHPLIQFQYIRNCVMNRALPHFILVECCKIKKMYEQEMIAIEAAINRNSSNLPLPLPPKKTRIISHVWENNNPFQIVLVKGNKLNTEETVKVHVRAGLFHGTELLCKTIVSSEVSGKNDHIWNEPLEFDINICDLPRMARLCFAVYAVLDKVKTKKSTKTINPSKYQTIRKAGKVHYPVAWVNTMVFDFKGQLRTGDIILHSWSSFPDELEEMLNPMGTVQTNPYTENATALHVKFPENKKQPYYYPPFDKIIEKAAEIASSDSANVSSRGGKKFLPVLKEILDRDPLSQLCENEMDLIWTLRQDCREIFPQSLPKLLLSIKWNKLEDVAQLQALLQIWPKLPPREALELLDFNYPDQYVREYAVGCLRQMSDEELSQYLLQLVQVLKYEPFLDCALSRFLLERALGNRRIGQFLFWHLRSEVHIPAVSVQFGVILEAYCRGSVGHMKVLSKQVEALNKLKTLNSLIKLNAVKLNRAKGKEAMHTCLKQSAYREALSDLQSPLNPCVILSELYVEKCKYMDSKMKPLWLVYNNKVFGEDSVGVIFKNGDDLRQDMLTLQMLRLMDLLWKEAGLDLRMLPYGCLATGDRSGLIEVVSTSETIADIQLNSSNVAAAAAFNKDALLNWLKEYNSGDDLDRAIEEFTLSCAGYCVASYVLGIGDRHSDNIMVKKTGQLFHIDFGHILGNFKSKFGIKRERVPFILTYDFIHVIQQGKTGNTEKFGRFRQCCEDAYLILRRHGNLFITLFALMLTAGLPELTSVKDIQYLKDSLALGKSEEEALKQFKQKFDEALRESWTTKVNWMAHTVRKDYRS
Sequence of PI3Kβ (P27986 whole entry partner, species assumed): as the sequence (P27986 whole entry partner) above
Sequence of PI3Kγ (P48736 whole entry, species assumed): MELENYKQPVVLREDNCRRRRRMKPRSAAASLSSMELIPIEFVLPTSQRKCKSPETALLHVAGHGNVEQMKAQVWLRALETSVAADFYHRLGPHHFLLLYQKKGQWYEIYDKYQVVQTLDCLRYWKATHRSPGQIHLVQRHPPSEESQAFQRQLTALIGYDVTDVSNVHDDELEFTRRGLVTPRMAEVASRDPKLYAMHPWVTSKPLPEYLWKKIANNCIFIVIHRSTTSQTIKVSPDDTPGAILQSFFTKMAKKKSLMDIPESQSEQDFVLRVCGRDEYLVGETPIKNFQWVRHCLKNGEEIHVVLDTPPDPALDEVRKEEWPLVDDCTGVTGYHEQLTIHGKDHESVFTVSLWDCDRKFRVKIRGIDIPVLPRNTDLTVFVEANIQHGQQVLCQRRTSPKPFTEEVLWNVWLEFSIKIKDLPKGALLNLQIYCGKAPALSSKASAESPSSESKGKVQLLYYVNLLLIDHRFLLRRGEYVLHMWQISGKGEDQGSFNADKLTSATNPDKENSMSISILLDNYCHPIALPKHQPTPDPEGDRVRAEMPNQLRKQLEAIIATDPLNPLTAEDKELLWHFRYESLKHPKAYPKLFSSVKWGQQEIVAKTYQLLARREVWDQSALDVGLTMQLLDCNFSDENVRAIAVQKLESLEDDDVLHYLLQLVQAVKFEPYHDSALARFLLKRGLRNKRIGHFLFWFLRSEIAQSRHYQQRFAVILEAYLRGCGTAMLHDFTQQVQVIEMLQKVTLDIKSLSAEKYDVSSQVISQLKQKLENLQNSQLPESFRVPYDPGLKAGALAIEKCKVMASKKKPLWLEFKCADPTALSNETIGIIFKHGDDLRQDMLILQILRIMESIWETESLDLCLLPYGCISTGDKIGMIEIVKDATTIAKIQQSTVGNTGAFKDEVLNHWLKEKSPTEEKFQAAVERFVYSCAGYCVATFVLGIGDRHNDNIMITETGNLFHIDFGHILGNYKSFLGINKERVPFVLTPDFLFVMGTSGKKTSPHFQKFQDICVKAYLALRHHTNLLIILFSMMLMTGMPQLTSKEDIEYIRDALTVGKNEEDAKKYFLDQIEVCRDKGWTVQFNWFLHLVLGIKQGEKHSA
Sequence of PI3Kα (P42336 whole entry, species assumed): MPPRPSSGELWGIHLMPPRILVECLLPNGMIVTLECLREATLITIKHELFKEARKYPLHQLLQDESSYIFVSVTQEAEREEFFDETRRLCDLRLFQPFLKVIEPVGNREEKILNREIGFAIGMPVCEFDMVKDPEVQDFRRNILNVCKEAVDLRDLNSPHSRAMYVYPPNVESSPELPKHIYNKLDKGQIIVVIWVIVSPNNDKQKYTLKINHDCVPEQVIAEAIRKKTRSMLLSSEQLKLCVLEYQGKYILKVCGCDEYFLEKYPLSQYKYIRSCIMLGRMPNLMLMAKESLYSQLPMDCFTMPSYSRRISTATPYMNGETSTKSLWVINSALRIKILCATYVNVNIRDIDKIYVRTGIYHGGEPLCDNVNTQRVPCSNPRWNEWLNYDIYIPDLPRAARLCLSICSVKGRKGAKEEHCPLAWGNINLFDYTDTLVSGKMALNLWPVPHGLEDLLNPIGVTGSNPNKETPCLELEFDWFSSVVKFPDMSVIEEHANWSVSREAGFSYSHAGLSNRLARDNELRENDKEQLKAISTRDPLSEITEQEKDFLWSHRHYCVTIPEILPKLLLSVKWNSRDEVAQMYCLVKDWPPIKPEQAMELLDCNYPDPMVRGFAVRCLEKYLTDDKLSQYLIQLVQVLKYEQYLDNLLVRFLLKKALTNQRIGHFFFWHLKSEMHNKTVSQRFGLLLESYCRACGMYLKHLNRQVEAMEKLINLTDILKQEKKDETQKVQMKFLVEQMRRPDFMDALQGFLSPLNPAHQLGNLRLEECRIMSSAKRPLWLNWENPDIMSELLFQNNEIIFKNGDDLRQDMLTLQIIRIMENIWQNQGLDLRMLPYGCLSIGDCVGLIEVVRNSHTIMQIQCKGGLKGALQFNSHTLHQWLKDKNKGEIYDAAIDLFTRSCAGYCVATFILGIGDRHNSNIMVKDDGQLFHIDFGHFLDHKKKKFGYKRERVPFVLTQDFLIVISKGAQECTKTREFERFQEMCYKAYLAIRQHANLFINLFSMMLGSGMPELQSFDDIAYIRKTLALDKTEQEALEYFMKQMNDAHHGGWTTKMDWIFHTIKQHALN
Sequence of PI3Kα (P27986 whole entry partner, species assumed): as the sequence (P27986 whole entry partner) above

| IC50 (PI3Kβ) | IC50 (PI3Kδ [1]) | IC50 (PI3Kα) | IC50 (PI3Kγ) | Recovery of enzyme activity after jump dilution (PI3Kδ [3]) | Covalent modification of PI3Kδ (protein mass spectrometry) (PI3Kδ [4]) | SMILES | IC50 (Class I PI3-kinases; Fruman et al. 1998) | IC50 (CK2 protein kinase) | Efficacy in mouse model of amphetamine-induced psychosis [2] | IC50 (Class I PI3-kinases; literature) |
| --- | --- | --- | --- | --- | --- | --- | --- | --- | --- | --- |
|  |  |  |  |  |  | O=c1cc(N2CCOCC2)oc2c(-c3ccccc3)cccc12 [LY294002] | 15 to 20 µM | 5 to 10 µM |  |  |
| 15.8 µM | 0.398 µM | 7.94 µM | 10 µM |  |  | COc1ncc(-c2cc(-c3ncc(CN4CCN(C(C)C)CC4)o3)c3cn[nH]c3c2)cc1C(=O)Oc1ccc(C)cc1C [Example 9, 2,4-Dimethylphenyl 5-(4-(5-((4-isopropylpiperazin-1-yl)methyl)oxazol-2-yl)-1H-indazol-6-yl)-2-methoxynicotinate] |  |  |  |  |
| 0.0631 µM | 0.000631 µM | 0.00631 µM | 1.58 µM |  |  | COc1ncc(-c2cc(-c3ncc(CN4CCN(C(C)C)CC4)o3)c3cn[nH]c3c2)cc1C(=O)Oc1ccc([N+](=O)[O-])cc1 [Example 4, 4-Nitrophenyl 5-(4-(5-((4-isopropylpiperazin-1-yl)methyl)oxazol-2-yl)-1H-indazol-6-yl)-2-methoxynicotinate] |  |  |  |  |
| 3.98 µM | 0.00631 µM | 2.51 µM | 12.6 µM |  |  | COc1ncc(-c2cc(-c3ncc(CN4CCN(C(C)C)CC4)o3)c3cn[nH]c3c2)cc1C(=O)Oc1ccccc1 [Example 8, Phenyl 5-(4-(5-((4-isopropylpiperazin-1-yl)methyl)oxazol-2-yl)-1H-indazol-6-yl)-2-methoxynicotinate] |  |  |  |  |
|  |  |  |  |  |  | Cc1ccccc1-n1c(Cn2cnc3c(N)ncnc32)nc2cccc(C)c2c1=O [IC87114] |  |  | remarkable efficacy |  |
| 12.6 µM | 0.0501 µM | 15.8 µM | 10 µM |  |  | COc1ccc(OC(=O)c2cc(-c3cc(-c4ncc(CN5CCN(C(C)C)CC5)o4)c4cn[nH]c4c3)cnc2OC)cc1 [Example 10, 4-Methoxyphenyl 5-(4-(5-((4-isopropylpiperazin-1-yl)methyl)oxazol-2-yl)-1H-indazol-6-yl)-2-methoxynicotinate] |  |  |  |  |
| 0.2 µM | 0.00501 µM | 0.0794 µM | 3.16 µM |  |  | COc1ncc(-c2cc(-c3ncc(CN4CCN(C(C)C)CC4)o3)c3cn[nH]c3c2)cc1C(=O)Oc1ccccc1[N+](=O)[O-] [Example 3, 2-Nitrophenyl 5-(4-(5-((4-isopropylpiperazin-1-yl)methyl)oxazol-2-yl)-1H-indazol-6-yl)-2-methoxynicotinate] |  |  |  |  |
| 6.31 µM | 0.00398 µM | 2 µM | 25.1 µM |  |  | COc1ncc(-c2cc(-c3ncc(CN4CCN(C(C)C)CC4)o3)c3cn[nH]c3c2)cc1C(=O)Oc1ccc(C(F)(F)F)cc1 [Example 6, 4-(Trifluoromethyl)phenyl 5-(4-(5-((4-isopropylpiperazin-1-yl)methyl)oxazol-2-yl)-1H-indazol-6-yl)-2-methoxynicotinate] |  |  |  |  |
| > 31.6 µM | 0.316 µM | 15.8 µM | 20 µM |  |  | COc1ncc(-c2cc(-c3ncc(CN4CCN(C(C)C)CC4)o3)c3cn[nH]c3c2)cc1C(=O)OCC(F)(F)F [Example 11, 2,2,2-Trifluoroethyl 5-(4-(5-((4-isopropylpiperazin-1-yl)methyl)oxazol-2-yl)-1H-indazol-6-yl)-2-methoxynicotinate] |  |  |  |  |
|  |  |  |  |  |  | COC[C@H]1OC(=O)c2coc3c2[C@@]1(C)C1=C(C3=O)[C@@H]2CCC(=O)[C@@]2(C)C[C@H]1OC(C)=O [Wortmannin] |  |  |  | 0.001 to 0.01 µM |
| 2 µM | 0.00631 µM | 1 µM | 7.94 µM |  |  | COc1ncc(-c2cc(-c3ncc(CN4CCN(C(C)C)CC4)o3)c3cn[nH]c3c2)cc1C(=O)Oc1ccccc1C(F)(F)F [Example 5, 2-(Trifluoromethyl)phenyl 5-(4-(5-((4-isopropylpiperazin-1-yl)methyl)oxazol-2-yl)-1H-indazol-6-yl)-2-methoxynicotinate] |  |  |  |  |
| > 31.6 µM | 0.0398 µM | 10 µM | > 31.6 µM | Recovery of enzyme activity was observed |  | COC(=O)c1cc(-c2cc(-c3ncc(CN4CCN(C(C)C)CC4)o3)c3cn[nH]c3c2)cnc1OC.O=CO [Example 1, Methyl 5-(4-(5-((4-isopropylpiperazin-1-yl)methyl)oxazol-2-yl)-1H-indazol-6-yl)-2-methoxynicotinate] |  |  |  |  |
| 20 µM | 0.0126 µM | 12.6 µM | 15.8 µM | Recovery of enzyme activity was observed | no modification | COc1ncc(-c2cc(-c3ncc(CN4CCN(C(C)C)CC4)o3)c3cn[nH]c3c2)cc1C(=O)O [Example 2, 5-(4-(5-((4-Isopropylpiperazin-1-yl)methyl)oxazol-2-yl)-1H-indazol-6-yl)-2-methoxynicotinic acid] |  |  |  |  |
